Target: unphosphorylated-BTK kinase domain (UP-BTK), GST-tagged human BTK (389-659aa) (Homo sapiens (Human), UniProt Q06187)
Experiment: BTK kinase Lanthascreen binding assay
Conditions: unphosphorylated-BTK kinase domain, 60 minutes incubation, 50 nM Tracer 236; pIC50 = negative log of the IC50 in molar
Outline: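 Compound binding to the unphosphorylated kinase domain was monitored by displacement of a fluorescently labelled tracer in a Lanthascreen format. Potency is given as pIC50, the negative log of the molar IC50.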

unphosphorylated-BTK kinase domain (UP-BTK), GST-tagged human BTK (389-659aa), sequence (Q06187 389-659): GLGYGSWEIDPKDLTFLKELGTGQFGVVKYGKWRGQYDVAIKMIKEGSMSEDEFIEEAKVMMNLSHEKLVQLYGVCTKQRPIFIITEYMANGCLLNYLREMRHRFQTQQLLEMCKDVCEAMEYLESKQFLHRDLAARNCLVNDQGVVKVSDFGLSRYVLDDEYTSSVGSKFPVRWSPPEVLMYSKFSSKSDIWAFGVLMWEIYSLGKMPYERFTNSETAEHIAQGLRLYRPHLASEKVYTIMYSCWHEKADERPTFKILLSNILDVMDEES

BTK_I_binding pIC50	Compound
6.4	Cc1cc(OC2CCCC2)ccc1N1C(=O)Nc2c(C(=O)N[C@@H]3CCCNC3)sc3nccc1c23 [Example 919, (R)-5-(4-(cyclopentyloxy)-2-methylphenyl)-4-oxo-N-(piperidin-3-yl)-4,5-dihydro-3H-1-thia-3,5,8-triazaacenaphthylene-2-carboxamide]
6.4	CN1CCC(NC(=O)c2sc3nccc4c3c2NC(=O)N4c2ccc(Oc3ccccc3)cc2)CC1 [Example 920, N-(1-Methylpiperidin-4-yl)-4-oxo-5-(4-phenoxyphenyl)-4,5-dihydro-3H-1-thia-3,5,8-triazaacenaphthylene-2-carboxamide]
6.3	Cc1cc(Oc2ccccc2)ccc1N1C(=O)Nc2c(C(=O)NC3CCN(C(=O)/C(C#N)=C/C(C)(C)C)CC3)sc3nccc1c23 [Example 921, (E)-N-(1-(2-Cyano-4,4-dimethylpent-2-enoyl)piperidin-4-yl)-5-(2-methyl-4-phenoxyphenyl)-4-oxo-4,5-dihydro-3H-1-thia-3,5,8-triazaacenaphthylene-2-carboxamide]
6.3	O=C(N[C@@H]1CCCNC1)c1sc2nccc3c2c1NC(=O)N3c1ccc(Oc2ccccc2)nc1 [Example 922, (R)-4-Oxo-5-(6-phenoxypyridin-3-yl)-N-(piperidin-3-yl)-4,5-dihydro-3H-1-thia-3,5,8-triazaacenaphthylene-2-carboxamide]
6.3	CNCC(=O)N1CCC[C@@H](NC(=O)c2sc3nccc4c3c2NC(=O)N4c2ccc(OC(C)C)cc2C)C1 [Example 923, (R)-5-(4-Isopropoxy-2-methylphenyl)-N-(1-(2-(methylamino)acetyl)piperidin-3-yl)-4-oxo-4,5-dihydro-3H-1-thia-3,5,8-triazaacenaphthylene-2-carboxamide]
6.3	CC(=O)N1CC[C@H](NC(=O)c2sc3nccc4c3c2NC(=O)N4c2ccc(Oc3ccccc3)cc2)C1 [Example 924, (S)—N-(1-Acetylpyrrolidin-3-yl)-4-oxo-5-(4-phenoxyphenyl)-4,5-dihydro-3H-1-thia-3,5,8-triazaacenaphthylene-2-carboxamide]
6.3	O=C(N[C@@H]1CCN(Cc2ccccc2)C1)c1sc2nccc3c2c1NC(=O)N3c1ccc(Oc2ccccc2)cc1 [Example 925, (R)—N-(1-Benzylpyrrolidin-3-yl)-4-oxo-5-(4-phenoxyphenyl)-4,5-dihydro-3H-1-thia-3,5,8-triazaacenaphthylene-2-carboxamide]
6.2	O=C(NC1CCNCC1)c1sc2nccc3c2c1NC(=O)N3c1ccc(Oc2ccccc2)cc1 [Example 926, 4-oxo-5-(4-phenoxyphenyl)-N-(piperidin-4-yl)-4,5-dihydro-3H-1-thia-3,5,8-triazaacenaphthylene-2-carboxamide]
6.2	O=C(NCCN1CCCC1)c1sc2nccc3c2c1NC(=O)N3c1ccc(Oc2ccccc2)cc1 [Example 927, 4-Oxo-5-(4-phenoxyphenyl)-N-(2-(pyrrolidin-1-yl)ethyl)-4,5-dihydro-3H-1-thia-3,5,8-triazaacenaphthylene-2-carboxamide]
6.2	O=C(NCCN1CCNCC1)c1sc2nccc3c2c1NC(=O)N3c1ccc(Oc2ccccc2)cc1 [Example 928, 4-Oxo-5-(4-phenoxyphenyl)-N-(2-(piperazin-1-yl)ethyl)-4,5-dihydro-3H-1-thia-3,5,8-triazaacenaphthylene-2-carboxamide]
6.1	C=CC(=O)N1CCC(NC(=O)c2sc3nccc4c3c2NC(=O)N4c2ccc(Oc3ccccc3)cc2C)CC1 [Example 929, N-(1-Acryloylpiperidin-4-yl)-5-(2-methyl-4-phenoxyphenyl)-4-oxo-4,5-dihydro-3H-1-thia-3,5,8-triazaacenaphthylene-2-carboxamide]
6.1	CN1CC[C@H](NC(=O)c2sc3nccc4c3c2NC(=O)N4c2ccc(Oc3ccccc3)cc2)C1 [Example 931, (S)—N-(1-Methylpyrrolidin-3-yl)-4-oxo-5-(4-phenoxyphenyl)-4,5-dihydro-3H-1-thia-3,5,8-triazaacenaphthylene-2-carboxamide]
6.1	O=C(NCCN1CCCCC1)c1sc2nccc3c2c1NC(=O)N3c1ccc(Oc2ccccc2)cc1 [Example 932, 4-Oxo-5-(4-phenoxyphenyl)-N-(2-(piperidin-1-yl)ethyl)-4,5-dihydro-3H-1-thia-3,5,8-triazaacenaphthylene-2-carboxamide]
6.1	O=C(NCCN1CCOCC1)c1sc2nccc3c2c1NC(=O)N3c1ccc(Oc2ccccc2)cc1 [Example 933, N-(2-Morpholinoethyl)-4-oxo-5-(4-phenoxyphenyl)-4,5-dihydro-3H-1-thia-3,5,8-triazaacenaphthylene-2-carboxamide]
6.0	CN1CCN(CCNC(=O)c2sc3nccc4c3c2NC(=O)N4c2ccc(Oc3ccccc3)cc2)CC1 [Example 935, N-(2-(4-Methylpiperazin-1-yl)ethyl)-4-oxo-5-(4-phenoxyphenyl)-4,5-dihydro-3H-1-thia-3,5,8-triazaacenaphthylene-2-carboxamide]
<6	CC(=O)N1CCC[C@@H](NC(=O)c2sc3nccc4c3c2NC(=O)N4c2ccc(OC(C)C)cc2C)C1 [Example 936, (R)—N-(1-Acetylpiperidin-3-yl)-5-(4-isopropoxy-2-methylphenyl)-4-oxo-4,5-dihydro-3H-1-thia-3,5,8-triazaacenaphthylene-2-carboxamide]
6.0	O=C(N[C@@H]1CCCNC1)c1sc2nccc3c2c1NC(=O)N3c1cccc(-c2cccnc2)c1 [Example 937, (R)-4-Oxo-N-(piperidin-3-yl)-5-(3-(pyridin-3-yl)phenyl)-4,5-dihydro-3H-1-thia-3,5,8-triazaacenaphthylene-2-carboxamide]
6.0	Cc1ccc(Oc2ccccc2)cc1N1C(=O)Nc2c(C(=O)N[C@H]3CCCN(C(=O)/C(C#N)=C/C4CC4)C3)sc3nccc1c23 [Example 938, (S,E)-N-(1-(2-Cyano-3-cyclopropylacryloyl)piperidin-3-yl)-5-(2-methyl-5-phenoxyphenyl)-4-oxo-4,5-dihydro-3H-1-thia-3,5,8-triazaacenaphthylene-2-carboxamide]
6.0	N#C/C(=C\C1CC1)C(=O)N1CCC[C@H](NC(=O)c2sc3nccc4c3c2NC(=O)N4c2cccc(Oc3ccccc3)c2)C1 [Example 939, (S,E)-N-(1-(2-Cyano-3-cyclopropylacryloyl)piperidin-3-yl)-4-oxo-5-(3-phenoxyphenyl)-4,5-dihydro-3H-1-thia-3,5,8-triazaacenaphthylene-2-carboxamide]
5.9	O=C(N[C@H]1CCN(C(=O)c2ccccc2)C1)c1sc2nccc3c2c1NC(=O)N3c1ccc(Oc2ccccc2)cc1 [Example 940, (S)—N-(1-benzoylpyrrolidin-3-yl)-4-oxo-5-(4-phenoxyphenyl)-4,5-dihydro-3H-1-thia-3,5,8-triazaacenaphthylene-2-carboxamide]
5.8	C=CC(=O)N1CCC[C@@H](NC(=O)c2sc3nccc4c3c2NC(=O)N4c2cc(Cl)cc(Cl)c2)C1 [Example 941, (R)—N-(1-Acryloylpiperidin-3-yl)-5-(3,5-dichlorophenyl)-4-oxo-4,5-dihydro-3H-1-thia-3,5,8-triazaacenaphthylene-2-carboxamide]
5.6	Cc1ccccc1N1C(=O)Nc2c(C(=O)N[C@H]3CCCN(C(=O)/C(C#N)=C/C4CC4)C3)sc3nccc1c23 [Example 942, (S,E)-N-(1-(2-Cyano-3-cyclopropylacryloyl)piperidin-3-yl)-4-oxo-5-(o-tolyl)-4,5-dihydro-3H-1-thia-3,5,8-triazaacenaphthylene-2-carboxamide]
5.6	C=CC(=O)N1CCC[C@@H](NC(=O)c2sc3nccc4c3c2NC(=O)N4c2cccc(N(C)C)c2)C1 [Example 943, (R)—N-(1-Acryloylpiperidin-3-yl)-5-(3-(dimethylamino)phenyl)-4-oxo-4,5-dihydro-3H-1-thia-3,5,8-triazaacenaphthylene-2-carboxamide]
5.6	Cc1cc(Oc2ccccc2)ccc1N1C(=O)Nc2c(C(=O)NC3CCN(C(=O)CC#N)CC3)sc3nccc1c23 [Example 944, N-(1-(2-Cyanoacetyl)piperidin-4-yl)-5-(2-methyl-4-phenoxyphenyl)-4-oxo-4,5-dihydro-3H-1-thia-3,5,8-triazaacenaphthylene-2-carboxamide]
5.5	O=C(N[C@H]1CCN(Cc2ccccc2)C1)c1sc2nccc3c2c1NC(=O)N3c1ccc(Oc2ccccc2)cc1 [Example 945, (S)—N-(1-Benzylpyrrolidin-3-yl)-4-oxo-5-(4-phenoxyphenyl)-4,5-dihydro-3H-1-thia-3,5,8-triazaacenaphthylene-2-carboxamide]
5.4	COc1ccc(N2C(=O)Nc3c(C(=O)N[C@H]4CCCN(C(=O)/C(C#N)=C/C5CC5)C4)sc4nccc2c34)c(C)c1 [Example 946, (S,E)-N-(1-(2-Cyano-3-cyclopropylacryloyl)piperidin-3-yl)-5-(4-methoxy-2-methylphenyl)-4-oxo-4,5-dihydro-3H-1-thia-3,5,8-triazaacenaphthylene-2-carboxamide]
5.4	CCC(=O)N1CCC(NC(=O)c2sc3nccc4c3c2NC(=O)N4c2ccc(Oc3ccccc3)cc2C)CC1 [Example 947, 5-(2-Methyl-4-phenoxyphenyl)-4-oxo-N-(1-propionylpiperidin-4-yl)-4,5-dihydro-3H-1-thia-3,5,8-triazaacenaphthylene-2-carboxamide]

Compound	BTK_I_binding pIC50
Cc1cc(Oc2ccccc2)ccc1N1C(=O)Nc2c(C(=O)N[C@H]3CCCN(C)C3)sc3nccc1c23 [Example 930, (S)-5-(2-methyl-4-phenoxyphenyl)-N-(1-methylpiperidin-3-yl)-4-oxo-4,5-dihydro-3H-1-thia-3,5,8-triazaacenaphthylene-2-carboxamide]	6.0
